Values joined by “and” are separate entries in the source; they are usually repeats but may differ in a detail not shown here. Identical values can stand only once.
Experiments:
clinical = settings: both, human, iv; for clearance / half-life: in vivo
[1] = Study #1 Phase 1: plasma and urine pharmacokinetics of Compound 1 and Compound 1A after IV infusion of Compound 1 (SAD, MAD, loading regimen); settings: both, human
[2] = plasma, 30 mg, Cohort 2: Compound 1 30 mg/3 hr IV, single dose, geometric mean [geometric %CV]
[3] = plasma, 100 mg, Cohort 3: Compound 1 100 mg/3 hr IV, single dose, geometric mean [geometric %CV]
[4] = plasma, 200 mg, Cohort 4: Compound 1 200 mg/3 hr IV, single dose, geometric mean [geometric %CV]

Nc1ncccc1-c1cc(Cc2ccc(COc3ccccn3)cc2)no1 [Compound 1A]
clearance (clinical): 25.7 mL/min and 0.348 mL/min/kg | half-life (clinical): 74.9 h | clearance (clinical; CL): 31.5 mL/min and 0.45 mL/min/kg | half-life (clinical; geometric mean T1/2, range across treatments): 39.2 to 74.9 h | half-life (clinical; geometric mean t1/2, range across cohorts): 48 to 69 h | half-life (clinical; t½): 39.2 h | AUC(0-t) (clinical; plasma, 150 mg): 51900 ng·h/mL | Cmax (clinical; plasma, 150 mg): 3420 ng/mL | Vd (clinical; plasma, 150 mg): 174 L and 2.17 L/kg | AUC(0-inf) (clinical; plasma, 350 mg): 173000 ng·h/mL | Cmax (clinical; plasma, 350 mg): 4330 ng/mL | Vd (clinical; plasma, 350 mg): 167 L and 2.26 L/kg | Vd ([1]; in vivo, 10 mg): 1.53 L/kg | Vd ([1]; in vivo, 50 mg): 188 L | AUC(0-t) ([1]; in vivo, 200 mg): 76000 ng·h/mL | AUC(0-t) ([1]; plasma, 10 mg, AUC(0-24), Cohort 1: Compound 1 10 mg/3 hr IV, single dose, geometric mean [geometric %CV]): 1540 ng·h/mL | AUC(0-t) ([1]; plasma, 10 mg, AUC(0-t), Cohort 1: Compound 1 10 mg/3 hr IV, single dose, geometric mean [geometric %CV]): 2380 ng·h/mL | AUC(0-inf) ([1]; plasma, 10 mg, Cohort 1: Compound 1 10 mg/3 hr IV, single dose, geometric mean [geometric %CV]): 4050 ng·h/mL | Tmax ([1]; plasma, 10 mg, Cohort 1: Compound 1 10 mg/3 hr IV, single dose, median): 3 h | Vd ([1]; plasma, 10 mg, Vz, Cohort 1: Compound 1 10 mg/3 hr IV, single dose, geometric mean [geometric %CV]): 107 L | AUC(0-t) ([1]; plasma, 30 mg, AUC(0-24), Cohort 2: Compound 1 30 mg/3 hr IV, single dose, geometric mean [geometric %CV]): 4320 ng·h/mL | AUC(0-t) ([1]; plasma, 30 mg, AUC(0-t), Cohort 2: Compound 1 30 mg/3 hr IV, single dose, geometric mean [geometric %CV]): 14100 ng·h/mL | AUC(0-inf) [1, 2]: 16600 ng·h/mL | Cmax [1, 2]: 477 ng/mL | Tmax ([1]; plasma, 30 mg, Cohort 2: Compound 1 30 mg/3 hr IV, single dose, median): 3 h | Vd ([1]; plasma, 30 mg, Vz, Cohort 2: Compound 1 30 mg/3 hr IV, single dose, geometric mean [geometric %CV]): 121 L and 1.72 L/kg | AUC(0-t) ([1]; plasma, 50 mg, AUC(0-24), Cohort 7: Compound 1 50 mg/3 hr IV QD × 14 days, Day 1, geometric mean): 6390 ng·h/mL | AUC(0-t) ([1]; plasma, 50 mg, AUC(0-24), Cohort 7: Compound 1 50 mg/3 hr IV QD × 14 days, Day 7, geometric mean): 17600 ng·h/mL | AUC(0-t) ([1]; plasma, 50 mg, AUC(0-24), Cohort 7: Compound 1 50 mg/3 hr IV QD × 14 days, Day 14, geometric mean): 20300 ng·h/mL | Cmax ([1]; plasma, 50 mg, Cohort 7: Compound 1 50 mg/3 hr IV QD × 14 days, Day 1, geometric mean): 669 ng/mL | Cmax ([1]; plasma, 50 mg, Cohort 7: Compound 1 50 mg/3 hr IV QD × 14 days, Day 7, geometric mean): 1090 ng/mL | Cmax ([1]; plasma, 50 mg, Cohort 7: Compound 1 50 mg/3 hr IV QD × 14 days, Day 14, geometric mean): 1180 ng/mL | Tmax ([1]; plasma, 50 mg, Cohort 7: Compound 1 50 mg/3 hr IV QD × 14 days, Day 1, median): 3 h | Tmax ([1]; plasma, 50 mg, Cohort 7: Compound 1 50 mg/3 hr IV QD × 14 days, Day 7, median): 3 h | Tmax ([1]; plasma, 50 mg, Cohort 7: Compound 1 50 mg/3 hr IV QD × 14 days, Day 14, median): 3 h | Vd ([1]; plasma, 50 mg, Vz, Cohort 7: Compound 1 50 mg/3 hr IV QD × 14 days, Day 14, geometric mean): 2.44 L/kg | AUC(0-t) ([1]; plasma, 100 mg, AUC(0-24), Cohort 3: Compound 1 100 mg/3 hr IV, single dose, geometric mean [geometric %CV]): 14400 ng·h/mL | AUC(0-t) ([1]; plasma, 100 mg, AUC(0-t), Cohort 3: Compound 1 100 mg/3 hr IV, single dose, geometric mean [geometric %CV]): 47400 ng·h/mL | AUC(0-inf) [1, 3]: 50400 ng·h/mL | Cmax [1, 3]: 1440 ng/mL | Tmax ([1]; plasma, 100 mg, Cohort 3: Compound 1 100 mg/3 hr IV, single dose, median): 3 h | Vd ([1]; plasma, 100 mg, Vz, Cohort 3: Compound 1 100 mg/3 hr IV, single dose, geometric mean [geometric %CV]): 115 L and 1.88 L/kg | AUC(0-t) ([1]; plasma, 150 mg, AUC(0-24), Cohort 8: Compound 1 150 mg/3 hr IV QD × 14 days, Day 1, geometric mean): 19400 ng·h/mL | AUC(0-t) ([1]; plasma, 150 mg, AUC(0-24), Cohort 8: Compound 1 150 mg/3 hr IV QD × 14 days, Day 7, geometric mean): 48700 ng·h/mL | Cmax ([1]; plasma, 150 mg, Cohort 8: Compound 1 150 mg/3 hr IV QD × 14 days, Day 1, geometric mean): 1860 ng/mL | Cmax ([1]; plasma, 150 mg, Cohort 8: Compound 1 150 mg/3 hr IV QD × 14 days, Day 7, geometric mean): 3090 ng/mL | Tmax ([1]; plasma, 150 mg, Cohort 8: Compound 1 150 mg/3 hr IV QD × 14 days, Day 1, median): 3 h | Tmax ([1]; plasma, 150 mg, Cohort 8: Compound 1 150 mg/3 hr IV QD × 14 days, Day 7, median): 3 h | Tmax ([1]; plasma, 150 mg, Cohort 8: Compound 1 150 mg/3 hr IV QD × 14 days, Day 14, median): 3.02 h | AUC(0-t) ([1]; plasma, 200 mg, AUC(0-24), Cohort 4: Compound 1 200 mg/3 hr IV, single dose, geometric mean [geometric %CV]): 20700 ng·h/mL | AUC(0-inf) [1, 4]: 83200 ng·h/mL | Cmax [1, 4]: 2410 ng/mL | Tmax ([1]; plasma, 200 mg, Cohort 4: Compound 1 200 mg/3 hr IV, single dose, median): 3 h | Vd ([1]; plasma, 200 mg, Vz, Cohort 4: Compound 1 200 mg/3 hr IV, single dose, geometric mean [geometric %CV]): 178 L and 2.46 L/kg | AUC(0-t) ([1]; plasma, 275 mg, AUC(0-24), Cohort 5: Compound 1 275 mg/3 hr IV, single dose, geometric mean [geometric %CV]): 37100 ng·h/mL | AUC(0-t) ([1]; plasma, 275 mg, AUC(0-t), Cohort 5: Compound 1 275 mg/3 hr IV, single dose, geometric mean [geometric %CV]): 114000 ng·h/mL

Source: patent publication US20210290644A1, “COMPOUNDS AND METHODS FOR TREATING FUNGAL INFECTIONS” (Amplyx Pharmaceuticals, Inc., priority 2018, published 2021)
